Measurements as given in ChEMBL document CHEMBL1201862, “PubChem BioAssay data set” (2004).
Calls of active or inactive are those of the source.

Assays:
[1] = A cytotoxicity screen of small molecule inhibitors of the PhoP region in Salmonella typhi identified in the primary screen. [Related pubchem assays: 1850, 1864, 1985 ]; assay type: functional
Aminopeptidase N = target: T1, Aminopeptidase N (Plasmodium falciparum FcB1/Columbia, UniProt O96935); assay: P. falciparum M1AAP inhibitors, biochemical, fluorogenic H-Leu-NHMec substrate, 1536-well (AID 1445); design: species or system Plasmodium falciparum 3D7, 3D7
T1 sequence (O96935 whole entry): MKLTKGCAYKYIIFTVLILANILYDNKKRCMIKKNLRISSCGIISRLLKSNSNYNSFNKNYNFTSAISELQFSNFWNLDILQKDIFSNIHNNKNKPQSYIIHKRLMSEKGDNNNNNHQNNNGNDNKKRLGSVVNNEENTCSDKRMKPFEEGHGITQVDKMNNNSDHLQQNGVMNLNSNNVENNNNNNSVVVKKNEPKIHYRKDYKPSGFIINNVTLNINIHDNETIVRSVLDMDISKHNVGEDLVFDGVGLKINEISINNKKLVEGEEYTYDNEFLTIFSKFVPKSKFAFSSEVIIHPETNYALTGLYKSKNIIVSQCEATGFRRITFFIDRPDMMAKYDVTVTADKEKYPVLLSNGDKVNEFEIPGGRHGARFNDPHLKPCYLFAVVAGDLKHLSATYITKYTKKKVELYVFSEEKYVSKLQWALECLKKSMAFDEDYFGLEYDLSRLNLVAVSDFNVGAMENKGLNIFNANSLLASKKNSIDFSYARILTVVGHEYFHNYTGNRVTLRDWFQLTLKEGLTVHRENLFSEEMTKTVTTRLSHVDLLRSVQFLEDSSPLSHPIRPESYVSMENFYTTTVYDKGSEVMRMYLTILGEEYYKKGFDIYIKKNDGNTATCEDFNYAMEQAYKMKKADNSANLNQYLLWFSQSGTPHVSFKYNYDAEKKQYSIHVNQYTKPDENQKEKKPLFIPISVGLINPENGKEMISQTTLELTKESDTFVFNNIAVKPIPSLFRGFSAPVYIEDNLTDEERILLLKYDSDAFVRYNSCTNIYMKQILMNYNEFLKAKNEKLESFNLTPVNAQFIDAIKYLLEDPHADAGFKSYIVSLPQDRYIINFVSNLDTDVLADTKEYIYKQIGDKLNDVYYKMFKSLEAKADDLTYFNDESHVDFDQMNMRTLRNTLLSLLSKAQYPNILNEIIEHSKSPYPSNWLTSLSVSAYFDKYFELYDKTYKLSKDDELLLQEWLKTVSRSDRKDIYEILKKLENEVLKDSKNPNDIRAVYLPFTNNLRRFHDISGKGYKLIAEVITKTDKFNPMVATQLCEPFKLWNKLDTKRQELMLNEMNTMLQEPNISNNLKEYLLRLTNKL

Large T antigen = Large T antigen (Simian virus 40, UniProt P03070); assay type: functional, Betapolyomavirus macacae;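 also: Confirmatory-stage PubChem screen for compounds that inhibit SV40 T antigen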
Cytochrome P450 3A4 = Cytochrome P450 3A4 (Homo sapiens, UniProt P08684); conditions: Potency;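 also: confirmatory qHTS run detecting inhibitors and substrates of CYP3A4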
Cytochrome P450 2D6 = Cytochrome P450 2D6 (Homo sapiens, UniProt P10635); assay: qHTS Assay for Inhibitors and Substrates of Cytochrome P450 2D6. [Related pubchem assays: 410 ]; assay type: ADME; conditions: read-out: Potency
Mucolipin-3 = target: T2, Mucolipin-3 (Homo sapiens, UniProt Q8TDD5); assay: Dose response cell-based high-throughput screening assay for agonists of the transient receptor potential channel ML3 (TRPML3). [Related pubchem assays: 1526, 1424, 1448 ]; assay type: functional
T2 sequence (Q8TDD5 whole entry): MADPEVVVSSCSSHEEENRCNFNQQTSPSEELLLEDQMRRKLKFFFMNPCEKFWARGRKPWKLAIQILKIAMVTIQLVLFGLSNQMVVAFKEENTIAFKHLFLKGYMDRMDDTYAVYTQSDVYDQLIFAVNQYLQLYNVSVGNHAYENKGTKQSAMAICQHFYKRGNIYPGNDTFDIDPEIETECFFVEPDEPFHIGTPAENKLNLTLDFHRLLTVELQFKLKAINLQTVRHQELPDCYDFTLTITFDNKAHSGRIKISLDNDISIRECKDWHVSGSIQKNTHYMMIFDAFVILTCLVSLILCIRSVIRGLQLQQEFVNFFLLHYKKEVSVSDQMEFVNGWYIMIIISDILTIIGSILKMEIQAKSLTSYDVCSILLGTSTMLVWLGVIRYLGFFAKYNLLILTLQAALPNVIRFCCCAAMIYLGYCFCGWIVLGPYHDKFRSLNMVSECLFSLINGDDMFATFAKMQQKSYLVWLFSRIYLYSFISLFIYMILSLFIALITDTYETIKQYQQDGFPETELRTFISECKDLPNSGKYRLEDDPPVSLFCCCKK

Ion channel NompC = Ion channel NompC (Danio rerio, UniProt Q7T1G6); assay: Fluorescence counterscreen assay for TRPML3 agonists: dose response cell-based high-throughput screening assay to identify agonists of the transient receptor potential channel N1 (TRPN1). [Related pubchem assays: 1526, 1424, 1448 ]; assay type: functional
[2] = target: T3, Calpain-2 catalytic subunit (Sus scrofa, UniProt P43367); assay: pig calpain II inhibitor potency, dose response, biochemical, fluorogenic peptide substrate (AID 1420); assay type: functional
T3 sequence (P43367 whole entry): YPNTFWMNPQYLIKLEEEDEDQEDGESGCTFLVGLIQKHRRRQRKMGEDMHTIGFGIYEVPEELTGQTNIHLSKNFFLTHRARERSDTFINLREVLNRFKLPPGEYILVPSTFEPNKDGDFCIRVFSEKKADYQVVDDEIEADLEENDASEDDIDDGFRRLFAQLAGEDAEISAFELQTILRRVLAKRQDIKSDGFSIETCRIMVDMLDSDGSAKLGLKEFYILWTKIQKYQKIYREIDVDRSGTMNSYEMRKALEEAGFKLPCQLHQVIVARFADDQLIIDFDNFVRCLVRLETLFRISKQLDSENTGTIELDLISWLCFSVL

Hexokinase HKDC1 = target: T4, Hexokinase HKDC1 (Homo sapiens, UniProt Q2TB90); assay: HKDC1 hexokinase inhibitors, dose response, biochemical, W721R variant (AID 504729); assay type: functional
T4 sequence (Q2TB90 whole entry): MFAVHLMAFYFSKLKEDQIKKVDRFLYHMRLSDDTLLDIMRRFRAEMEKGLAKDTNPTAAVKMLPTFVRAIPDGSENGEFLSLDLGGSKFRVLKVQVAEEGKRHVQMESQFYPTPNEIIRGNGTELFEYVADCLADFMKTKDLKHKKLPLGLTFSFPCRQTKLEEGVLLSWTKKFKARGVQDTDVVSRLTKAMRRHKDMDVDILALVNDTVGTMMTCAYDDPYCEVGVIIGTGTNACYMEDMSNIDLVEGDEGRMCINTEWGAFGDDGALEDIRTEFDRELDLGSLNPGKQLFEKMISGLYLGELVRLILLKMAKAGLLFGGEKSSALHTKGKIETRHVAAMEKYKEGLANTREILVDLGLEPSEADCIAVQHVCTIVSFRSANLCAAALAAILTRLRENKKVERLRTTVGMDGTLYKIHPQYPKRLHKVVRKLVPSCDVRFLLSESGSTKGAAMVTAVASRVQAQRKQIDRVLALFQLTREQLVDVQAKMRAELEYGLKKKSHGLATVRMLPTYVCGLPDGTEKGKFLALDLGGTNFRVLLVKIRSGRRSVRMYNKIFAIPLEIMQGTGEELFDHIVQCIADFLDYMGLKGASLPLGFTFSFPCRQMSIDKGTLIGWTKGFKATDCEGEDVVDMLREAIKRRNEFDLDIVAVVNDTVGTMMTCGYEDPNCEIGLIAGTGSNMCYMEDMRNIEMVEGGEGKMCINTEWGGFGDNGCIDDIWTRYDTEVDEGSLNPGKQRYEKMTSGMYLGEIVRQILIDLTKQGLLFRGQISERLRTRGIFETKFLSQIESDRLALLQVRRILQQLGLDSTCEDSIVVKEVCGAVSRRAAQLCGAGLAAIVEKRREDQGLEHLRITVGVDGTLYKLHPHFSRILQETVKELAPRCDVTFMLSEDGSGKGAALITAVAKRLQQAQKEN

[3] = inhibitors of SNCA 5'UTR-driven reporter translation, confirmation, H4 neuroglioma cells, luminescence (AID 1988); assay type: functional, cell-based
Protein RecA = target: T5, Protein RecA (Mycobacterium tuberculosis, UniProt P9WHJ3); assay: Fluorescence Cell-Free Homogeneous Dose Retest to Identify Inhibitors of RecA-Intein Splicing Activity. [Related pubchem assays (depositor defined):AID2097, AID2223, AID489010, AID492950]; assay type: functional
T5 sequence (P9WHJ3 whole entry): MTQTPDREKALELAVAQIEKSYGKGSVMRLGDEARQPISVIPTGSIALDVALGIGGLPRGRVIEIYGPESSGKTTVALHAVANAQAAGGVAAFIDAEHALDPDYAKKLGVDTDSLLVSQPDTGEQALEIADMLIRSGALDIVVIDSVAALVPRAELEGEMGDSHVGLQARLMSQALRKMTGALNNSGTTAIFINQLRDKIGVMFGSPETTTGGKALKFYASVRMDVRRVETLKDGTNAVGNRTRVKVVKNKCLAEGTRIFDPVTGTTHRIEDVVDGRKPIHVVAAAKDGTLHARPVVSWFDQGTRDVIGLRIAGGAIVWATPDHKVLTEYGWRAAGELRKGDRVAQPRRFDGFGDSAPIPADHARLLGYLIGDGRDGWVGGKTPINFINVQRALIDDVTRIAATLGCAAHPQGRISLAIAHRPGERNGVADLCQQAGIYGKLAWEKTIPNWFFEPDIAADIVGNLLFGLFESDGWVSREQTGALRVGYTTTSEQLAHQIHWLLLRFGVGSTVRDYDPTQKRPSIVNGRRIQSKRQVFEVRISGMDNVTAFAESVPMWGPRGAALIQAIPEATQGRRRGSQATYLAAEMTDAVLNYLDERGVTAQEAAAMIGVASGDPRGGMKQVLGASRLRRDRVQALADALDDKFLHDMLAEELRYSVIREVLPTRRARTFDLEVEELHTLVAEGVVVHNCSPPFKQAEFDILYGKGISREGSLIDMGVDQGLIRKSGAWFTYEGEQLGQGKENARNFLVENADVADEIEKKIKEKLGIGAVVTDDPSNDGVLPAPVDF

[4] = Luminescence Cell-Based Dose Response HTS to Identify Inhibitors of 5'UTR Stem-Loop Driven Prion Protein mRNA Translation in H4 Neuroglioblastoma Cells. [Related pubchem assays: 1827 (Project Summary), 1813 (Primary HTS)]; assay type: functional
[5] = inhibitors of firefly luciferase expression or activity, dose response, H4 neuroglioma cells, luminescence (AID 1990); assay type: functional, cell-based
[6] = target: T6, Replicative DNA helicase DnaB (Mycobacterium tuberculosis, UniProt P9WMR3); assay: DnaB intein splicing inhibitors, dose response, biochemical, cell-free fluorescence (AID 449749); assay type: functional
T6 sequence (P9WMR3 whole entry): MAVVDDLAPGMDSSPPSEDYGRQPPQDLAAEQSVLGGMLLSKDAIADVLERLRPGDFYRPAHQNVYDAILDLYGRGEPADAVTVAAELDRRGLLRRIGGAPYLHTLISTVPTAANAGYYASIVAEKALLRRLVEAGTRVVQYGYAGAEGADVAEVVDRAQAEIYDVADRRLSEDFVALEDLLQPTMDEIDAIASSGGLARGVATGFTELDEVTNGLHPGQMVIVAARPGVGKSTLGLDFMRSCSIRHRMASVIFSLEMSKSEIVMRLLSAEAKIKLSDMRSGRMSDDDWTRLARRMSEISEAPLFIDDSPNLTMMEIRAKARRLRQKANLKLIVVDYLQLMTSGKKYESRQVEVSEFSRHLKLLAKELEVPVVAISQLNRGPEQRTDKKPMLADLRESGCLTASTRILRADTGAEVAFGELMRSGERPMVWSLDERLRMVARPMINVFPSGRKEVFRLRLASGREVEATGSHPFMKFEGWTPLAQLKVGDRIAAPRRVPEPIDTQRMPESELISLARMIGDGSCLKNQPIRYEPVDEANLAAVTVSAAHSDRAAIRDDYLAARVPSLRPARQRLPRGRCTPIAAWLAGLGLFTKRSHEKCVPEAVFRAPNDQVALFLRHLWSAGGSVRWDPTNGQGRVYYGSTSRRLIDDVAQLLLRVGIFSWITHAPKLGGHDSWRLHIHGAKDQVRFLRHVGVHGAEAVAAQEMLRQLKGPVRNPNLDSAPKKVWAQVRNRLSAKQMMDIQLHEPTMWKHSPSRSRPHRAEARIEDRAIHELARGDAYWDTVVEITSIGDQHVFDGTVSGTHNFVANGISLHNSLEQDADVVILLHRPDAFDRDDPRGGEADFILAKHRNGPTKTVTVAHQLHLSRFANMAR

[7] = target: DNA dC->dU-editing enzyme APOBEC-3G (Homo sapiens, UniProt Q9HC16); assay: Dose Response confirmation of small molecule APOBEC3G DNA Deaminase Inhibitors via a fluorescence-based single-stranded DNA deaminase assay. [Related pubchem assays (depositor defined):AID493012, AID493028]; assay type: functional
Sequence of DNA dC->dU-editing enzyme APOBEC-3G (Q9HC16 whole entry): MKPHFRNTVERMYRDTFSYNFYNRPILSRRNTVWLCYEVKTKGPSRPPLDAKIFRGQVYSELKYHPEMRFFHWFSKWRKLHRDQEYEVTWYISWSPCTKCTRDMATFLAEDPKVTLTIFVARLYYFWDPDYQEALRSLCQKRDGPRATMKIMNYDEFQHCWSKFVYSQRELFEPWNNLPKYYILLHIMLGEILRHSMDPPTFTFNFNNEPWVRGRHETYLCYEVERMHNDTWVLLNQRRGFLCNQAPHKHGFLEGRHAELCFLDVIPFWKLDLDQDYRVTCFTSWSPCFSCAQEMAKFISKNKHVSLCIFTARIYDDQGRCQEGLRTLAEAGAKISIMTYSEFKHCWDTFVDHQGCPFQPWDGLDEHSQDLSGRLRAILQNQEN

Sequence of Cytochrome P450 3A4 (P08684 whole entry): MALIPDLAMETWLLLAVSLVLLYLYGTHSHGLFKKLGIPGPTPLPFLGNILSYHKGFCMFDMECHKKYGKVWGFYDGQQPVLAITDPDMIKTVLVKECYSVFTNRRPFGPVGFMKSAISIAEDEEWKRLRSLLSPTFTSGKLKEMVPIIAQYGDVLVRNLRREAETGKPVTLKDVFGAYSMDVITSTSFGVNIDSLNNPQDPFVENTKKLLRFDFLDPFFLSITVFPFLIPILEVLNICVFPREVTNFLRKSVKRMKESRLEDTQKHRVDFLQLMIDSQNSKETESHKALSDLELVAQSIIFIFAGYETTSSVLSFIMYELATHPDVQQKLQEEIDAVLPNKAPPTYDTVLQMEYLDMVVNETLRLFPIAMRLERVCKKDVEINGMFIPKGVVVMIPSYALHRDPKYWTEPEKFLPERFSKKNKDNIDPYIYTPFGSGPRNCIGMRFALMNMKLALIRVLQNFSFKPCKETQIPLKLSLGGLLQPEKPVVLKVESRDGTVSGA
Sequence of Cytochrome P450 2D6 (P10635 whole entry): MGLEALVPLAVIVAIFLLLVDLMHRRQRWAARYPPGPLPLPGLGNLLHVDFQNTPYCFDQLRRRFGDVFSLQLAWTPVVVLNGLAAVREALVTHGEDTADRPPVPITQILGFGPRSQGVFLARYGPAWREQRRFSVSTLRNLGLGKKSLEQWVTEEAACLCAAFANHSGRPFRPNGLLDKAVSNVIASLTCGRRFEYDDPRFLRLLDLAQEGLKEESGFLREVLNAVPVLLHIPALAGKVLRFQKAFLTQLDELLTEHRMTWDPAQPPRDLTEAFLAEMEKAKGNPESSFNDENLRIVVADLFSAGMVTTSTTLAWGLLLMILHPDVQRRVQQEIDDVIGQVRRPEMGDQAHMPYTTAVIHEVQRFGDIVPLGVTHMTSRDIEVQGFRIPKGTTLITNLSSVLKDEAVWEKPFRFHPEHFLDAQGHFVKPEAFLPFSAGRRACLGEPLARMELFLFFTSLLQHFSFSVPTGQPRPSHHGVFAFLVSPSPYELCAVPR
Sequence of Ion channel NompC (Q7T1G6 whole entry): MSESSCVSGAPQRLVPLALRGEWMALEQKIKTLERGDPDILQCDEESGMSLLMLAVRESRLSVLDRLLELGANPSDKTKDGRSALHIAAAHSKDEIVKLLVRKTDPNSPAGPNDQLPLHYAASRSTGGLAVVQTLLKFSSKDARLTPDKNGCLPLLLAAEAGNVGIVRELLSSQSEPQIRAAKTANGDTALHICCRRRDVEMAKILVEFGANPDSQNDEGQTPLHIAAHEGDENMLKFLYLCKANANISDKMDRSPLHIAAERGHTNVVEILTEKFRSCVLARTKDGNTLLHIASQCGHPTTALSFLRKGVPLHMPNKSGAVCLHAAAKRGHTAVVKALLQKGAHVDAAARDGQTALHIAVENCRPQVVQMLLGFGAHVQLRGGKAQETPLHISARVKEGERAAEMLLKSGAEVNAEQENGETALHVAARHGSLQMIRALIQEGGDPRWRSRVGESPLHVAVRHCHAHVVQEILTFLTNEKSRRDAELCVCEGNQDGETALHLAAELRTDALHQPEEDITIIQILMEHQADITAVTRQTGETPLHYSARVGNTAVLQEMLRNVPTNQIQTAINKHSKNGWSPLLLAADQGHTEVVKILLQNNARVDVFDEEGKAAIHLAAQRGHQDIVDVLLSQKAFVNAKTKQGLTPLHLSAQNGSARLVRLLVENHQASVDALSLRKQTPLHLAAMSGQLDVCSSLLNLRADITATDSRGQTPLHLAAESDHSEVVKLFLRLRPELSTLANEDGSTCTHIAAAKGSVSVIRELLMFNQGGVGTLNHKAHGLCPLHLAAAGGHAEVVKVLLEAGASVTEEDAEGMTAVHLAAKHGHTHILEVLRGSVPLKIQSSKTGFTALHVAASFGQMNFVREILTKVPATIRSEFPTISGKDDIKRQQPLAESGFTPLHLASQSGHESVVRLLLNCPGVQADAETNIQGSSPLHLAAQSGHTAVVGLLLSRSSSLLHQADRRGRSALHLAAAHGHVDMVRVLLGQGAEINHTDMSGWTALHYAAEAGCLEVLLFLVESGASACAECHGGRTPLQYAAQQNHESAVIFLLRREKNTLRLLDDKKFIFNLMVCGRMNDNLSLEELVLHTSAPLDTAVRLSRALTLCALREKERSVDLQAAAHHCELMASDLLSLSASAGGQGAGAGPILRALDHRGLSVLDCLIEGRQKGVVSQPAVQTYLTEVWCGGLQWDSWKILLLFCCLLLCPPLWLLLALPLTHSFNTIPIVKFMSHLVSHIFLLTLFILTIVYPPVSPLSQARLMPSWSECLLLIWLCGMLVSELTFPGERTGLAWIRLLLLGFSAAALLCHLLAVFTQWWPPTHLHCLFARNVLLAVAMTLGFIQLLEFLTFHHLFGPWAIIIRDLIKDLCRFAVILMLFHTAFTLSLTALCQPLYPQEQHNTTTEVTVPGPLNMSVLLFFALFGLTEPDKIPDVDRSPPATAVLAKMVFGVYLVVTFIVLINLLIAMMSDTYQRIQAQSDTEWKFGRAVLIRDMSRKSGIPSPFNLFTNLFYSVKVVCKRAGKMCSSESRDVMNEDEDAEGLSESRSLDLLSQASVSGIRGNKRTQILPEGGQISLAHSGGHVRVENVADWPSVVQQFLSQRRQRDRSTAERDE
Sequence of Large T antigen (P03070 whole entry): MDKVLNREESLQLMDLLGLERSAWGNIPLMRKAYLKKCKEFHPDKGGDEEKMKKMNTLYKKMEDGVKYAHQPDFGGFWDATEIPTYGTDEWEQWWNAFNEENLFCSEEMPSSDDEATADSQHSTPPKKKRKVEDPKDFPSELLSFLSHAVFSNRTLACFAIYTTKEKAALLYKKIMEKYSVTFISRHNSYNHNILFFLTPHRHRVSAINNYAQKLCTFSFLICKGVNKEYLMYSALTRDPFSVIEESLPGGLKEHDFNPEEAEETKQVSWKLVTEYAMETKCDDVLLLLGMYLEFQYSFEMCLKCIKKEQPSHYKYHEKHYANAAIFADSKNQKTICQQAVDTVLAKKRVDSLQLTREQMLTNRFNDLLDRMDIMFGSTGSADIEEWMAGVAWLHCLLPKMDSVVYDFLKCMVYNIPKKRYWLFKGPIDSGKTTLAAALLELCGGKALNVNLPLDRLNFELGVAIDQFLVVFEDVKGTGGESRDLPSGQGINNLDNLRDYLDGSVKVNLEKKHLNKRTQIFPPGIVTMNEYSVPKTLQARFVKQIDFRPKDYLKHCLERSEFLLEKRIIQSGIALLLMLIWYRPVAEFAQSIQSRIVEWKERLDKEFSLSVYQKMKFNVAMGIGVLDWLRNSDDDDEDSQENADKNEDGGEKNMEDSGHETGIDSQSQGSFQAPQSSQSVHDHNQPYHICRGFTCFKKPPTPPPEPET

With Cc1cccc(OCCSc2nnc(-c3ccoc3C)n2C)c1 the EC50 [1] was > 50 µM (active).
For COc1ccccc1C(=O)Nc1nnc(-c2ccc(Cl)cc2)o1, the EC50 [1] was > 50 µM (active).
In the case of COc1cc(/C=C2\SC(=S)N(C(C(=O)O)c3ccccc3)C2=O)ccc1O (stereo not given), the IC50 (Aminopeptidase N) is reported as 38.1 µM (active) and the IC50 (Large T antigen) is reported as 11.6 µM (active).
For O=C1c2n[nH]c(-c3ccccc3O)c2C(c2ccc(F)cc2)N1CC1CCCO1 (stereo not given), the EC50 [1] was > 50 µM (active).
In the case of OCC1OC(c2ccc3c(c2)OCO3)C=CC1Oc1ccc(C2CCCC2)cc1 (stereo not given), the AC50 (Cytochrome P450 3A4) is reported as 2 µM (inconclusive) and the AC50 (Cytochrome P450 2D6) is reported as 3.16 µM (inconclusive).
With COc1ccc2c(c1)C(C)CC(C)(C)N2C(=O)CSc1nc2ccccc2s1 (stereo not given) the EC50 (Mucolipin-3) was 2.63 µM (active), the EC50 (Ion channel NompC) was > 29.9 µM (not active) and the IC50 [2] was 3.08 µM (not active).
With COc1ncnc2c1oc1nc(C(C)C)c3c(c12)CC(C)(C)OC3 the IC50 (Hexokinase HKDC1) was 11.7 µM (active).
In the case of COc1ccc(OC)c(C(c2c(O)oc3ccccc3c2=O)c2c(C)n(C)n(-c3ccccc3)c2=O)c1 (stereo not given), the IC50 (Aminopeptidase N) is reported as 71 µM (active).
For CCOc1cc(/C=C(/C#N)C(=O)Nc2ccc(O)cc2)cc(Br)c1O, the IC50 (Aminopeptidase N) was 78.7 µM (active), the EC50 [3] was 7.65 µM (active) and the EC50 (Protein RecA) was 3.28 µM (active). The EC50 [4] was 9.51 µM (active), the EC50 [5] was 9.71 µM (inconclusive) and the AC50 [6] was > 380 µM (inactive).
For CCn1c(N)c(C(=O)NCC2CCCO2)sc1=S (stereo not given), the IC50 [7] was 66.6 µM (active).
In the case of CC(C)c1nc2oc3c(O)ncnc3c2c2c1COC(C)(C)C2, the IC50 (Hexokinase HKDC1) is reported as 8.22 µM (active).
